System: peripheral blood CD4 T-cells of patients with type 1 diabetes
Test: Differentiation of peripheral blood CD4 T-cells (Th1, Th2, Th17, Treg) after in vitro treatment, flow cytometry
Format: cell-based, human
Conditions: 100 μM, 24 h in vitro, lymphocytes of type 1 diabetes patients
Description: (1) 5 ml peripheral blood was extracted from patients and normal humans separately, diluted twice with PBS of pH 7.2, and then mixed with lymphocyte separation solution Lymphoprep (Axis-Shield, Norway), centrifuged at 3500 rpm for 20 min, then the lymphocytes were taken out and cultured in RPMI1640 medium (purchased from Gibco) to obtain the cultured lymphocytes. The above cultured lymphocytes were treated in vitro with DHA (docosahexaenoic acid) at a final concentration of 100 μM, EPA (eicosapentaenoic acid) at a final concentration of 100 μM, and AA (arachidonic acid) at a final concentration of 100 μM for 24 h, respectively. After treating, changes in intracellular cytokines of CD4 T-cells in the above lymphocytes were detected. (The above DHA, EPA and AA are all purchased from Sigma).
(2) labeling of intracellular cytokines of CD4 T-cells: The lymphocytes (number up to 1×10^5) from patients and normal humans in the above steps were placed to different marked tubes. Labeled fluorescent monoclonal antibodies CD3 (0.1 μg) and CD8 (0.1 μg) were added into each tube. Then 1 ml paraformaldehyde having a concentration of 4% by weight was added into each tube, mixed well and incubated at room temperature (20° C.-30° C.) for 20 min. 1 ml intraprep permeabilization reagent, i.e. 0.5% saponin, was added, incubated at room temperature (20° C.-30° C.) for 30 min, then centrifuged for 5 min at 300 g, 4° C. to obtain a supernatant and a precipitate. The supernatant was removed, and 80 μl 0.5% saponin was added to re-suspend the precipitate to obtain suspensions. The obtained suspensions were labeled respectively with IFN-γ fluorescent monoclonal antibody (0.1 μg), IL-17 fluorescent monoclonal antibody (0.1 μg), IL-4 fluorescent monoclonal antibody (0.1 μg), and Foxp3 fluorescent monoclonal antibody (0.1 μg), and incubated in dark place at 4° C. for 1 h (for the suspension labeled with Foxp3 fluorescent monoclonal antibody, incubation and rupture took 8 h). The labeled cells were washed three times with 0.5% saponin, centrifuged for 5 min at 300 g, 4° C. to obtain a supernatant and a precipitate. The supernatant was removed, and the precipitate was fixed with paraformaldehyde having a mass concentration of 1%. After 24 h, percentages of Th1, Th2, Th17 and Treg cells were analyzed with a flow cytometer Accuri-C6. The antibodies and instruments used in the above steps were all purchased from BD Bioscience.
The CON in FIG. 2 represents a control group, i.e. the lymphocytes of peripheral blood from normal humans not treated with DHA, EPA or AA. The CON in FIG. 3 represents a control group, i.e. the lymphocytes of peripheral blood from patients not treated with DHA, EPA, or AA. In FIG. 2, figures A, B, C, D, and E show percentages of Th1, Th2, Th1/Th2, Th17 and Treg cells in peripheral blood CD4 T-cells of normal subjects, respectively, and figures F, G, H, I and J show percentages of Th1, Th2, Th1/Th2, Th17 and Treg cells in peripheral blood CD4 T-cells of patients, respectively. In FIG. 3, figures A, B, C, and D show percentages of transcription factors T-bet, GATA3, RORγT, and Foxp3 in peripheral blood CD4 T-cells of patients, respectively. As shown in FIGS. 2-3, in peripheral blood CD4 T-cells of patients with type 1 diabetes treated with DHA, EPA and AA respectively, the percentages of Th1 and Th17 cells decreased, and the percentages of Th2 and Treg cells increased, and the ratio of Th1/Th2 and the ratio of T17/Treg were rebalanced.

SMILES: CCCCC/C=C\C/C=C\C/C=C\C/C=C\CCCC(=O)O [AA, arachidonic acid]
- ratio of T17/Treg: rebalanced
- ratio of Th1/Th2: rebalanced
- percentage of Th1 cells (vs untreated): decreased
- percentage of Th2 cells (vs untreated): increased
- percentage of Th17 cells (vs untreated): decreased
- percentage of Treg cells (vs untreated): increased

Reference: patent publication US20210269824A1, “VIRAL VECTOR FOR TREATING AUTOIMMUNE DISEASE AND DIABETES AND CONSTRUCTION METHOD AND APPLICATION THEREOF” (Guangzhou Huazhen Pharmaceutical Co., Ltd., priority 2017, published 2021)
